What was measured:
[1] = Metabolic stability in rat liver microsomes assessed as intrinsic clearance; assay type: ADME, Microsome; details: read-out: CLH
[2] = Inhibition of CD69 expression on CD19 positive B cells in anti-IgD stimulated human whole blood; assay type: functional, tissue-based; details: CD19 positive B cell
[3] = Metabolic stability in human liver microsomes assessed as intrinsic clearance; assay type: ADME, Microsome; details: read-out: CLH
[4] = biological target: T1, Tyrosine-protein kinase BTK (Homo sapiens, UniProt Q06187); assay: Inhibition of BTK (unknown origin)
T1 sequence (Q06187 whole entry): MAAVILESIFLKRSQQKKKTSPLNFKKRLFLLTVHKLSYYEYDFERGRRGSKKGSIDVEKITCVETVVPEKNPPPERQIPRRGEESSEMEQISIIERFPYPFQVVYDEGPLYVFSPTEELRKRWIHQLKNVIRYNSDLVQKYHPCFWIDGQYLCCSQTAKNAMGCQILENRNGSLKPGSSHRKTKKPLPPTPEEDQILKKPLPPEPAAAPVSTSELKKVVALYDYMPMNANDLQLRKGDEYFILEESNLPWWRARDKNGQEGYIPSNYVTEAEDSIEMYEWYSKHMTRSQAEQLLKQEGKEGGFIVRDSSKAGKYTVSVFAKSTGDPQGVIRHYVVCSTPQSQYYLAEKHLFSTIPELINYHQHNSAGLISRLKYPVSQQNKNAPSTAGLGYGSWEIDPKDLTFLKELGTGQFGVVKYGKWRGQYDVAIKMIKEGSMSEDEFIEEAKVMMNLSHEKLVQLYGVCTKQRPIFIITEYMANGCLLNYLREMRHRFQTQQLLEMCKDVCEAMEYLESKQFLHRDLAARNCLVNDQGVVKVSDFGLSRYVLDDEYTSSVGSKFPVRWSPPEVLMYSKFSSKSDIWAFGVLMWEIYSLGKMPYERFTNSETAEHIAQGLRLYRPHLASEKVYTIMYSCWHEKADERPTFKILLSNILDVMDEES

[5] = biological target: T1, Tyrosine-protein kinase BTK; assay: Inhibition of pBTK in human whole blood; assay type: tissue-based

| Structure (SMILES) | CLint scaled [1] | IC50 [2] | CLint scaled [3] | IC50 [4] | IC50 [5] |
| --- | --- | --- | --- | --- | --- |
| C=CC(=O)N(C)CCOc1cnccc1-c1ccc(CN2CCN(CC)CC2=O)c(C)c1 | 591 mL/min/kg | 4410 nM | 113 mL/min/kg | 32 nM | – |
| C=CC(=O)N(C)CCOc1cnccc1-c1ccc(CN2CCN(CCC)CC2=O)c(C)c1 | 1540 mL/min/kg | 890 nM | 286 mL/min/kg | 4.8 nM | – |
| Cc1cc(-c2ccnc(Nc3cnn(C)c3)n2)ccc1CN1CCN(CC(F)(F)F)CC1=O | – | – | – | 160 nM | – |
| Cc1cc(-c2ccnc(Nc3cnn(C)c3)n2)ccc1CN1CCN(CC2CN(C)C2)CC1=O | – | – | – | 7300 nM | – |
| Cc1cc(-c2ccnc(Nc3cnn(C4CN(C)C4)c3)n2)ccc1CN1CCN(CC(C)C)CC1=O | – | – | – | 7 nM | 350 nM |
| CC(C)CN1CCN(Cc2ccc(-c3ccnc(Nc4cnn(CCO)c4)n3)cc2C(F)(F)F)C(=O)C1 | – | – | – | 1 nM | 120 nM |
| Cc1cc(-c2ccnc(Nc3cnn(C)c3)n2)ccc1CN1CCN(CC(C)(C)C#N)CC1=O | – | – | – | 99 nM | – |
| C=CC(=O)N(C)CCOc1cnccc1-c1ccc(CN2CCN(C(C)C)CC2=O)c(C)c1 | 1240 mL/min/kg | 920 nM | 135 mL/min/kg | 2.9 nM | – |
| CC(C)CN1CCN(Cc2ccc(-c3ccnc(Nc4cnn(CCO)c4)n3)cc2Cl)C(=O)C1 | – | – | – | 4 nM | 990 nM |
| C=CC(=O)N(C)CCOc1cncnc1-c1ccc(CN2CCN(CC(F)(F)F)CC2=O)c(C)c1 | 1110 mL/min/kg | 1990 nM | 316 mL/min/kg | 12 nM | – |
| C=CC(=O)N(C)CCOc1cncnc1-c1ccc(CN2CCN(C3CCOC3)CC2=O)c(F)c1 (centres undefined) | 308 mL/min/kg | > 10000 nM | 81 mL/min/kg | 268 nM | – |
| Cc1cc(-c2ccnc(Nc3cnn(C)c3)n2)ccc1CN1CCN(CC2CN(O)C2)CC1=O | – | – | – | 80 nM | – |

Further compounds by falling IC50 [4], results first:

| CLint scaled [1] | IC50 [2] | CLint scaled [3] | IC50 [4] | IC50 [5] | Structure (SMILES) |
| --- | --- | --- | --- | --- | --- |
| – | – | – | 4200 nM | – | Cc1cc(-c2ccnc(Nc3cnn(C)c3)n2)ccc1CN1CCN(CC2CNC2)CC1=O |
| – | – | – | 520 nM | – | CCN1CCN(Cc2ccc(-c3ccnc(Nc4cnn(C)c4)n3)cc2C)C(=O)C1 |
| 620 mL/min/kg | > 10000 nM | 95 mL/min/kg | 315 nM | – | C=CC(=O)N(C)CCOc1cnccc1-c1ccc(CN2CCN(C)CC2=O)c(C)c1 |
| – | – | – | 180 nM | – | Cc1cc(-c2ccnc(Nc3cnn(C)c3)n2)ccc1CN1CCN(CC2CCOC2)CC1=O (centres undefined) |
| – | – | – | 43 nM | – | Cc1cc(-c2ccnc(Nc3cnn(C)c3)n2)ccc1CN1CCN(C(C)(C)C)CC1=O |
| – | – | – | 28 nM | – | Cc1cc(-c2ccnc(Nc3cnn(C)c3)n2)ccc1CN1CCN(CC2CC(F)(F)C2)CC1=O |
| 930 mL/min/kg | 4700 nM | 270 mL/min/kg | 17 nM | – | C=CC(=O)N(C)CCOc1cncnc1-c1ccc(CN2CCN(CC(C)(C)C)CC2=O)cc1 |
| – | – | – | 11 nM | – | Cc1cc(-c2ccnc(Nc3cnn(C)c3)n2)ccc1CN1CCN(C2CCC2)CC1=O |
| – | – | – | 7 nM | – | Cc1cc(-c2ccnc(Nc3cnn(C)c3)n2)ccc1CN1CCN(CC2(C)CC2)CC1=O |
| – | – | – | 3 nM | 310 nM | Cc1cc(-c2ccnc(Nc3cnn(C)c3)n2)ccc1CN1CCN(CC(C)C)CC1=O |
| – | – | – | 3 nM | 590 nM | Cc1cc(-c2ccnc(Nc3cnn(CCO)c3)n2)ccc1CN1CCN(CC(C)C)CC1=O |
| 1880 mL/min/kg | 1080 nM | 384 mL/min/kg | 1.6 nM | – | C=CC(=O)N(C)CCOc1cncnc1-c1ccc(CN2CCN(CC3CCC3)CC2=O)c(C)c1 |
| 2260 mL/min/kg | 1080 nM | 686 mL/min/kg | 1.2 nM | – | C=CC(=O)N(C)CCOc1cnccc1-c1ccc(CN2CCN(CC3CCC3)CC2=O)c(C)c1 |
| 2680 mL/min/kg | 130 nM | 559 mL/min/kg | 0.98 nM | – | C=CC(=O)N(C)CCOc1cncnc1-c1ccc(CN2CCN(CC3(C)CC3)CC2=O)c(C)c1 |
| 2340 mL/min/kg | 160 nM | 633 mL/min/kg | 0.65 nM | – | C=CC(=O)N(C)CCOc1cnccc1-c1ccc(CN2CCN(CC(C)C)CC2=O)c(C)c1 |
| 3680 mL/min/kg | 300 nM | 809 mL/min/kg | 0.44 nM | – | C=CC(=O)N(C)CCOc1cncnc1-c1ccc(CN2CCN(CC(C)(C)C)CC2=O)c(F)c1 |

From ChEMBL document CHEMBL5131445, “Optimization of a novel piperazinone series as potent selective peripheral covalent BTK inhibitors” (Bioorg Med Chem Lett, 2022)
